Results on three molecules are retold here after patent publication US8895752B2, “Alkylsulfonyl-substituted thiazolide compounds” (priority 2007, dated 2014).

The term EC50 denotes the midpoint of the concentration-response curve. Usually EC90 stands for the point of the concentration-response curve where the effect stands at 90%. What is called CC50 is the concentration that lowers cell viability or growth by half.

The subject of one data set is HBV. The data set can be described thus: HBV antiviral assay in confluent 2.2.15 cell cultures (HBV DNA, quantitative blot hybridization). In kind it is cell-based, Hepatitis B Virus.
Data set [1] is described as follows: Cytotoxicity by neutral red dye uptake in 2.2.15 cells. To be noted: human. As to the method: (§1) HBV antiviral assays were conducted as previous described (Korba and Gerin, 1992).
(§2) EC50, EC90 and CC50 values (±standard deviations [S.D.]) were calculated by linear regression analysis using data combined from all treated cultures (Korba and Gerin, 1992; Okuse et al., 2005). […] Selectivity index (S.I.) was calculated as CC50/EC90 for HBV assays and CC50/EC50 for HCV assays. EC90 values were used for calculation of the S.I. in HBV assays since at least a […] depression of HBV DNA levels is typically required to achieve statistical significance in this assay system (Korba and Gerin, 1992). For combination treatments, EC50, EC90, CC50 and S.I. are presented for the first compound listed. The molar ratio of the compounds in each combination is also indicated.

The subject of data set [2] is HCV replicon, sub-genomic CON1, genotype 1b. The data set can be described thus: 3-day HCV replicon assay in AVA5 cells (intracellular HCV RNA, blot hybridization). In kind it is cell-based, Hepatitis C Virus. As to the method: (§3) Antiviral activity of test compounds was assessed in a 3-day assay using the stably-expressing HCV replicon cell line, AVA5 (sub-genomic CON1, genotype 1b) (Blight et al., 2000) maintained as sub-confluent cultures on 96-well plates as previously described (Okuse et al., 2005). Antiviral activity was determined by blot hybridization analysis of intracellular HCV RNA (normalized to the level of cellular B-actin RNA in each culture sample) and cytotoxicity was assessed by neutral red dye uptake after 3 days of treatment. Additional studies were performed using Huh7 cells containing another HCV replicon, H/FL-Neo, a genotype 1a full length construct (Blight et al., 2003). For studies involving human serum, standard culture medium (which contains 10% fetal bovine serum) and assay conditions were maintained.
as §2
In general terms: Replicon systems follow genome replication, usually without infectious particles.

Data set [3] in a line: Cytotoxicity by neutral red dye uptake in AVA5 cells. The class given is cell-based. To be noted: human, AVA5 cells (HCV replicon, sub-genomic CON1), Genotype 1b replicon.
For data set [4], the system named is HCV replicon H/FL-Neo, genotype 1a full length. The data set can be described thus: HCV replicon assay in Huh7 cells containing H/FL-Neo. In kind it is cell-based, Hepatitis C Virus. As to the method: as §3, §2
Data set [5] is described as follows: Cytotoxicity by neutral red dye uptake in Huh7 cells containing H/FL-Neo. The class given is cell-based. The note with it: human; Genotype 1a replicon.
The test system of another data set is HCV replication. The data set can be described thus: HCV replicon assay in the presence of human serum. The class given is cell-based. To be noted: Hepatitis C virus. As for the experimental part:
as §3, §2
(§4) To evaluate the effect of human serum on the anti-HCV potency and cytotoxicity of TIZ, human serum was added to the culture medium at various concentrations (Table 6). […] In the below tables, RM4863 is the same as compound 6 of Table 7.

A short description of data set [6]: Cytotoxicity in HCV replicon cells in the presence of human serum. As for the experimental part: as §3, §2, §4
The conditions of data set [7]: cited from earlier work.
A further data set relates to cytochrome P450 enzymes. To be noted: cited from earlier work.
A further data set deals with HCV replicon. The data set can be described thus: Primary HCV replicon cell assay. In kind it is cell-based, Hepatitis C Virus. As for the experimental part:
as §3, §2

A further data set has as its system HCV replicon cells. The data set can be described thus: Primary HCV replicon cell assay, cytotoxicity. The note with it: primary assay. As to the method: as §3, §2
Another data set deals with HCV replicon genotype 1B. The data set can be described thus: Secondary HCV replicon cell assay, genotype 1B. The class given is cell-based, Hepatitis C Virus. From the text: (§5) Table 10 presents data from the secondary HCV replicon cell assays using genotypes 1B and 1A.
Data set [8] relates to HCV replicon cells, genotype 1B. The data set can be described thus: Secondary HCV replicon cell assay, genotype 1B, cytotoxicity. The class given is cell-based.
Excerpt: as §5

In the next data set the test system is HCV replicon genotype 1A. The data set can be described thus: Secondary HCV replicon cell assay, genotype 1A. In kind it is cell-based, Hepatitis C Virus.
Excerpt: as §5

The subject of data set [9] is HCV replicon cells, genotype 1A. The data set can be described thus: Secondary HCV replicon cell assay, genotype 1A, cytotoxicity. The class given is cell-based.
Excerpt: as §5

In another data set the test system is 2.2.15 cells. The data set can be described thus: Cytotoxicity by neutral red dye uptake in 2.2.15 cells. To be noted: confluent 2.2.15 cultures, nine daily doses, neutral red uptake. As to the method:
as §1, §2

In a further data set the test system is AVA5 cells. The data set can be described thus: Cytotoxicity by neutral red dye uptake in AVA5 cells. The note with it: Genotype 1b replicon, 3 days. The class given is cell-based.
Data set [10] concerns Huh7 cells containing H/FL-Neo. The data set can be described thus: Cytotoxicity by neutral red dye uptake in Huh7 cells containing H/FL-Neo. The note with it: Genotype 1a replicon. In kind it is cell-based.
Setting [11] is: Hepatitis C virus, Huh-7, Genotype 1a replicon.
[12] abbreviates: Genotype 1b replicon, 3 days, first compound listed for combinations.

Structures are written as SMILES. Where “and” joins values, the source holds several entries; their conditions need not be identical. Equal entries are not always repeated. Where two headings read alike, the source gives them in different places. Some results are limits rather than exact numbers.

Protocol for HBV: EC50, EC90 and CC50 values (±standard deviations [S.D.]) were calculated by linear regression analysis using data combined from all treated cultures (Korba and Gerin, 1992; Okuse et al., 2005). […] Selectivity index (S.I.) was calculated as CC50/EC90 for HBV assays and CC50/EC50 for HCV assays. EC90 values were used for calculation of the S.I. in HBV assays since at least a 3-fold depression of HBV DNA levels is typically required to achieve statistical significance in this assay system (Korba and Gerin, 1992).

As for `O=C(Nc1ncc([N+](=O)[O-])s1)c1ccccc1O` [TIZ, tizoxanide], the “Selectivity Index Virion” value in the data set on HBV (CC50/EC90, extracellular virion DNA) was above 172. The “Selectivity Index RI” value in the data set on HBV (CC50/EC90, intracellular HBV RI) is above 83. Besides, the EC50 in the data set on HBV (Hepatitis B virus, read-out: Intracellular HBV RI EC50) was 0.46 ± 0.05 µM; with HBV (Hepatitis B virus, 2.2.15 cells, nine daily doses, read-out: Extracellular virion DNA EC50), 0.15 ± 0.02 µM; in [4] (setting [11]), 0.25 ± 0.03 µM; in the data set on HCV replication (human serum 0 %), 0.25 ± 0.01 µM; with HCV replication (human serum 2.5 %), 0.48 ± 0.02 µM; in the data set on HCV replication (human serum 5 %), 0.64 ± 0.05 µM. Further, the EC50 in the data set with HCV replication (human serum 10 %) was determined as 1.1 ± 0.1 µM; with HCV replication (human serum 15 %), 2.7 ± 0.3 µM; with HCV replication (human serum 20 %), 9.4 ± 0.8 µM; with HCV replication (human serum 30 %) it was 9.3 ± 0.9 µM. Further, the EC90 in the data set with HBV (Hepatitis B virus, 2.2.15 cells, nine daily doses, read-out: Extracellular virion DNA EC90) amounted to 0.58 ± 0.06 µM; in the data set with HBV (Hepatitis B virus, 2.2.15 cells, nine daily doses, read-out: Intracellular HBV RI EC90), 1.2 ± 0.2 µM; in data set [4] (setting [11]) it was 1 ± 0.1 µM; in the data set with HCV replication (human serum 0 %), 0.98 ± 0.04 µM; with HCV replication (human serum 2.5 %), 1.1 ± 0.1 µM; in the data set on HCV replication (human serum 5 %), 2.3 ± 0.1 µM. The EC90 was 3 ± 0.2 µM with HCV replication (human serum 10 %), 15 ± 2 µM in the data set on HCV replication (human serum 15 %), 27 ± 2.2 µM in the data set with HCV replication (human serum 20 %) and 32 ± 3 µM with HCV replication (human serum 30 %). Further, the CC50 at 9 days in data set [1] was above 100 µM. Further, the “Selectivity Index” value in data set [2] (Genotype 1b replicon, CC50/EC50) was found to be 100; in [4] (Genotype 1a replicon, CC50/EC50), 56. Further, the CC50 at 3 days in data set [3] is 15 ± 1.2 µM; in data set [5], 14 ± 0.2 µM; in data set [6] (CC50, human serum 0 %) it was 28 ± 0.9 µM; in data set [6] (CC50, human serum 2.5 %), 65 ± 1.4 µM; in data set [6] (CC50, human serum 5 %), 97 ± 3.9 µM; in data set [6] (CC50, human serum 10 %) it was above 100 µM. Also, the CC50 at 3 days was above 100 µM in data set [6] (CC50, human serum 15 %); above 100 µM in [6] (CC50, human serum 20 %); above 100 µM in data set [6] (CC50, human serum 30 %). In data set [4], the “antiviral activity against full length genotype 1a replicon compared with AVA5 cells (genotype 1b)” value is listed as “equivalent”. In addition, the “elimination half-life from plasma” value in data set [7] (in vivo) was “approximately 1.5 hours”. For the same molecule, the Maximum serum concentrations entry in [7] (one 500 mg NTZ tablet (Alinia) orally with food) is “approximately 10 μg/mL and ~37 μM”. Moreover, in [7] (oral dose of NTZ), the “part of an oral dose that passes through the intestinal tract and is excreted in feces as TIZ” value was “Approximately two-thirds”. Also, in the data set on cytochrome P450 enzymes, the “inhibition of cytochrome P450 enzymes” value is reported as “does not inhibit”.
For `CS(=O)(=O)c1cnc(NC(=O)c2ccccc2O)s1` [Compound 75], the EC50 in the data set with HCV replicon was 2.1 µM; with HCV replicon genotype 1A, 2.8 µM. Besides, the EC90 in the data set on HCV replicon was 8.1 µM; with HCV replicon genotype 1B, 7.9 µM; with HCV replicon genotype 1A, 8.5 µM. Further, the CC50 in the data set with HCV replicon cells is 53 µM; in data set [8], 54 µM; in data set [9] it was 56 µM.
Turning to `O=C(Nc1ncc(Br)s1)c1ccccc1O` [RM4832], the EC50 with HBV (2.2.15 cells, nine daily doses, read-out: Extracellular virion DNA EC50) was 1.2 ± 0.1 µM; with HBV (2.2.15 cells, nine daily doses, read-out: Intracellular HBV RI EC50) it was 2.9 ± 0.3 µM; in [2] (setting [12]) it was 4.9 ± 0.5 µM; in data set [4] (Genotype 1a replicon) it was 2.8 ± 0.3 µM. Also, the EC90 in the data set with HBV (2.2.15 cells, nine daily doses, read-out: Extracellular virion DNA EC90) amounted to 4 ± 0.3 µM; with HBV (2.2.15 cells, nine daily doses, read-out: Intracellular HBV RI EC90) it was 8.7 ± 1 µM; in [2] (setting [12]), 20 ± 1.9 µM; in [4] (Genotype 1a replicon) it was 9.4 ± 1.1 µM. The CC50 with 2.2.15 cells was above 100 µM; in the data set with AVA5 cells, 98 ± 3.2 µM; in data set [10] it was 88 ± 2.1 µM. Further, the “activity against HCV” value in data set [2] (among the other thiazolides) is recorded as “exhibited activity”. In addition, in [4], the “antiviral activity against full length genotype 1a replicon compared with AVA5 cells (genotype 1b)” value is on record as “equivalent”.
